Reference: publication PMC6874683, “Pyrrothiogatain acts as an inhibitor of GATA family proteins and inhibits Th2 cell differentiation in vitro” (Scientific Reports, 2019)
Entries after “also recorded” stand apart in the source; their conditions may differ.

Legend:
[1] = target: T1, GATA3 (Homo sapiens, UniProt P23771); experiment: Electrophoretic mobility shift assay (EMSA), GATA3; format: binding; conditions: 50 to 100 µM
T1 construct: we synthesized the recombinant full-length GATA3 protein with an N-terminal FLAG tag using the wheat cell-free system; made in house; host or cells: wheat cell-free protein synthesis system (WEPRO1240 kit)
T1 sequence (P23771 whole entry, species assumed): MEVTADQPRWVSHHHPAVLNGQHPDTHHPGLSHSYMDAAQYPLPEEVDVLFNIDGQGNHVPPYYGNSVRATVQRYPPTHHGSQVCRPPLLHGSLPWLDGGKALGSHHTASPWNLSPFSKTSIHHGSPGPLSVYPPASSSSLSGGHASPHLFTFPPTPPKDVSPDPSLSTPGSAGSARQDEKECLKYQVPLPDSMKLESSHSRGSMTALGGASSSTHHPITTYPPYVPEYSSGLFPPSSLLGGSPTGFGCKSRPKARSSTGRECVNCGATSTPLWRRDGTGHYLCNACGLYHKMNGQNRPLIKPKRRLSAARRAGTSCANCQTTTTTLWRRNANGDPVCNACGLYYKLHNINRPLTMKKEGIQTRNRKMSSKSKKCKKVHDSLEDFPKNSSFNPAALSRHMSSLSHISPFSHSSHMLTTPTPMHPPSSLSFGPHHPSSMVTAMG
Procedure: Electrophoretic mobility shift assays were performed as described previously. In brief, four GATA family proteins (GATA2 to GATA5) were incubated with a ^32P-labelled GATA-binding DNA probe for 20 min at 4 °C in the presence or absence of pyrrothiogatain (0 to 100 µM). The DNA-protein complex was separated from free oligonucleotides on 4% polyacrylamide gels, and then, the ^32P-labelled DNA probes were detected using the Typhoon FLA 7000 (GE Healthcare).

[2] = system: Th2 cytokines; experiment: ELISA of cytokine production, naive CD4+ T cells under Th2 conditions; format: cell-based, mouse; conditions: 30 and 80 µM, 5 days
Procedure: C57BL/6 mice were purchased from Clea (Clea Japan, Inc., Tokyo, Japan). Total CD4^+ T cells isolated from mouse spleen were prepared using a FITC anti-mouse CD4 antibody (Cat#100510, RM4–5, BioLegend) and anti-FITC-microbeads (Cat#130-097-050, Miltenyi Biotec). Naive CD4^+ T cells (CD44^low, CD62L^high) were prepared using a MojoSort Mouse CD4 T cell Isolation Kit (Cat#480033), BioLegend). Biotinylated anti-CD44 (Cat#103004, IM7) and anti-CD25 antibodies (Cat#102004, PC61) were purchased from BioLegend. […]
The CD4^+ T cells cultured for five days were stimulated using an immobilized anti-TCR-β mAb (3 µg/mL, H57–597, BioLegend) for 16 h, and the culture supernatants were recovered. The amount of cytokines in the recovered supernatants was determined with ELISA using the following antibodies and reagents: anti-IL-4 mAb (Cat#554387, BD Biosciences), biotin-anti-IL-4 mAb (Cat#554390, BD Biosciences), anti-IL-5 mAb (Cat#554393, BD Biosciences), biotin-anti-IL-5 mAb (Cat#554397, BD Biosciences), anti-IFN-γ mAb (Cat#551216, BD Biosciences), biotin-anti-IFN-γ mAb (Cat#554410, BD Biosciences), anti-IL-2 mAb (Cat#554424, BD Biosciences), biotin-anti-IL-2 mAb (Cat#554426, BD Biosciences), streptavidin horseradish peroxidase (Cat#434323, Invitrogen), and TMB peroxidase EIA substrate kit (Cat#1721066, BioRad). […]

[3] = system: Th2 cytokine and GATA3 mRNA; experiment: Quantitative RT-PCR, naive CD4+ T cells under Th2 conditions; format: cell-based, mouse; conditions: 5 days
Procedure: C57BL/6 mice were purchased from Clea (Clea Japan, Inc., Tokyo, Japan). Total CD4^+ T cells isolated from mouse spleen were prepared using a FITC anti-mouse CD4 antibody (Cat#100510, RM4–5, BioLegend) and anti-FITC-microbeads (Cat#130-097-050, Miltenyi Biotec). Naive CD4^+ T cells (CD44^low, CD62L^high) were prepared using a MojoSort Mouse CD4 T cell Isolation Kit (Cat#480033), BioLegend). Biotinylated anti-CD44 (Cat#103004, IM7) and anti-CD25 antibodies (Cat#102004, PC61) were purchased from BioLegend. CD4^+ T cells (7.5 × 10^5) were stimulated using immobilized anti-TCR-β mAb (3 µg/mL, H57–597, BioLegend) plus an anti-CD28 mAb (1.0 µg/mL, cat#40–0281, TONBO Biosciences) for 2 days, and then, the cells were further expanded under similar conditions for an additional 3 days. IL-2 conditions: IL-2 (10 ng/mL, Pepro Tech); Th2 conditions: IL-2 (10 ng/mL, Pepro Tech), IL-4 (1 ng/mL, Pepro Tech), and anti-IFN-γ mAb (2.5 µg/mL, cat#40–731, TONBO Biosciences). Th1 conditions: IL-2 (10 ng/mL, Pepro Tech), IL-12 (1 ng/mL, Pepro Tech), and anti-IL-4 mAb (2.5 µg/mL, cat#40–731, TONBO Biosciences). The cultured cells were subjected to intracellular staining, ELISA assay, and RT-PCR. All animal experiments received approval from the Ehime University Administrative Panel for Animal Care. All animal care was conducted in accordance with the guidelines of Ehime University. […]

[4] = system: OVA-induced allergic mice; experiment: OVA-induced allergic airway inflammation model; format: in vivo, mouse; conditions: 20 mg/kg intraperitoneally every day from day 0 to 6, versus vehicle control
Procedure: C57BL/6 mice at 7 weeks old were immunized intraperitoneally with 100 µg OVA (Cat#A5503, Sigma) in 2 % aluminium hydroxide gel (Cat#vax-alu-250, InvivoGen) on day 0. The mice were challenged intranasally with 100 µg OVA in saline on days 7, 8 and 9. Pyrrothiogatain was administrated intraperitoneally at a concentration of 20 mg/kg in PBS every day from day 0 to 6. The day after the last OVA challenge, BAL fluid cells were subjected to histological examination using the Diff Quick stain (Cat#16920, Sysmex). All animal experiments received approval from the Ehime University Administrative Panel for Animal Care. All animal care was conducted in accordance with the guidelines of Ehime University.

Intensity of the shifted bands generated by GATA3-DNA binding [1]: decreased
Compound: Cc1ccc(C)n1-c1ccsc1C(=O)O [Pyrrothiogatain, 3-(2,5-dimethyl-1H-pyrrol-1-yl)thiophene-2-carboxylic acid]
Production of IL-4, IL-5 and IL-13 (ELISA) [2]: Decreased | mRNA expression of IL-4, IL-5 and IL-13 (RT-qPCR) ([3]; 30 and 80 µM): Decreased | Expression of GATA3, mRNA level [3]: not influenced | Number of inflammatory cells in the bronchoalveolar lavage (BAL) fluid [4]: no significant difference; also recorded: did not significantly decrease
